Patent publication US8815517B2, “Methods for identifying functionally related genes and drug targets” (Ribonomics, Inc., priority 1999, dated 2014)

Experiments:
Assay type in all cases: cell-based, murine
G11 cells [1] = assay: Induction of differentiation of HuB (Hel-N2) stably transfected P19 (G11) cells; conditions: 5% DMSO, harvested after about eight days
Procedure: The cells were then plated into two 100 mm gelatin-coated tissue culture plates. Cells were harvested after an additional four days. […] Neuronal differentiation was induced by treating 5×10^5 G11 or P19 cells placed on a 60 mm petri dish with 0.5 μM RA (Sigma-Aldrich, St. Louis, Mo., Catalog # R2625). Muscle differentiation was induced by treating 5×10^5p19 cells placed on a 60 mm petri dish with 5% DMSO (Sigma-Aldrich, St. Louis, Mo., Catalog # D2650). After two days, 25% of the cells that had formed into clumps were removed, placed in new petri dishes, and supplemented with fresh medium and RA or DMSO. Following an additional two days, cell aggregates were washed once with phosphate-buffered saline (PBS) and trypsinized. The cells were then plated into two 100 mm gelatin-coated tissue culture plates. Cells were harvested after an additional four days. […] Cell extracts and immunoprecipitations were performed as described in Example 1. Monoclonal anti-gene 10 (g10) antibodies were obtained from Duke University (Durham, N.C.) as previously described in Examples 1 and 2.

G11 cells [2] = assay: Quantitative PCR of CACN, CELSR and MBNL RNA expression in G11 cells over the time course of differentiation; conditions: time course of one to nine days
Procedure: The expression of these three genes was analyzed by Quantitative RT-PCR during a time course of one to nine days of treatment with either dimethyl-sulfoxide or retinoic acid. To verify a role in neuronal differentiation, a comprehensive transcriptional analysis by Quantitative PCR was undertaken looking at the patterns of RNA expression for the […], and MBNL genes in the G11 cells (constitutively expressing HuB) and in the parental P19 cells (FIGS. 12A, 12B, and 12C).

G11 cells [3] = assay: Microarray of total cellular RNA of G11 cells, differentiated/undifferentiated; conditions: change in amount of RNA, day 1 and day 9
Procedure: Neuronal differentiation was induced by treating 5×10^5 G11 or P19 cells placed on a 60 mm petri dish with 0.5 μM RA (Sigma-Aldrich, St. Louis, Mo., Catalog # R2625). Muscle differentiation was induced by treating 5×10^5p19 cells placed on a 60 mm petri dish with 5% DMSO (Sigma-Aldrich, St. Louis, Mo., Catalog # D2650). After two days, 25% of the cells that had formed into clumps were removed, placed in new petri dishes, and supplemented with fresh medium and RA or DMSO. Following an additional two days, cell aggregates were washed once with phosphate-buffered saline (PBS) and trypsinized. The cells were then plated into two 100 mm gelatin-coated tissue culture plates. Cells were harvested after an additional four days. […] Cell extracts and immunoprecipitations were performed as described in Example 1. Monoclonal anti-gene 10 (g10) antibodies were obtained from Duke University (Durham, N.C.) as previously described in Examples 1 and 2. Following immunoprecipitation, the associated mRNAs were identified on high density mouse 12K glass slide microarrays (Mouse cDNA microarray kit, Catalog # […], Agilent Technologies, Palo Alto, Calif.). RNA labeling and microarray analysis was performed according to the manufacturer's protocols (Agilent Technologies, Palo Alto, Calif.).

Row | SMILES | muscle differentiation (morphology and markers) (G11 cells [1]) | expression patterns of the CACN, CELSR and MBNL genes (G11 cells [2]) | ΔTotal Cellular RNA, CACN (G11 cells [3]) | ΔTotal Cellular RNA, CELSR (G11 cells [3]) | ΔTotal Cellular RNA, MBNL (G11 cells [3])
1 | C[S+](C)[O-] [DMSO, dimethyl-sulfoxide] | displayed characteristic muscle cell markers and morphology | failed to induce changes | – | – | –
2 | CC1=C(/C=C/C(C)=C/C=C/C(C)=C/C(=O)O)C(C)(C)CCC1 [RA, retinoic acid] | – | – | +1.31X | −1.33X | +1.42X
